Experimental data reported in the supplement of paper PMC10307832.

Assays:
Test in all cases: relative viability (nuclei count vs DMSO), 5 days (fraction); higher = more cells survive
CAL-12T = tested on: CAL-12T
How it was run: (§1)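 Medians of duplicate plates are given as relative viability. That measure is the nuclei count in treated wells divided by the count in vehicle wells. Counts were taken on 4× images of lung cancer cell lines in 1536-well plates, 5 days after pin-tool dosing the day after seeding with one drug alone or a fixed anchor-drug dose plus five library-drug doses (not always all listed) in √10 steps.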

NCI-H322M = tested on: NCI-H322M
How it was run: as §1

SW 900 = tested on: SW 900
How it was run: as §1

NCI-H727 = tested on: NCI-H727
How it was run: as §1

HCC-15 = tested on: HCC-15
How it was run: as §1

NCI-H358 = tested on: NCI-H358
How it was run: as §1

LK-2 = tested on: LK-2
How it was run: as §1

EKVX = tested on: EKVX
How it was run: as §1

ABC-1 = tested on: ABC-1
How it was run: as §1

NCI-H522 = tested on: NCI-H522
How it was run: as §1

NCI-H520 = tested on: NCI-H520
How it was run: as §1

NCI-H1651 = tested on: NCI-H1651
How it was run: as §1

COR-L 105 = tested on: COR-L 105
How it was run: as §1

BEN = tested on: BEN
How it was run: as §1

NCI-H460 = tested on: NCI-H460
How it was run: as §1

201T = tested on: 201T
How it was run: as §1

LU99A = tested on: LU99A
How it was run: as §1

HCC-44 = tested on: HCC-44
How it was run: as §1

PC-3 [JPC-3] = tested on: PC-3 [JPC-3]
How it was run: as §1

NCI-H838 = tested on: NCI-H838
How it was run: as §1

EMC-BAC-2 = tested on: EMC-BAC-2
How it was run: as §1

NCI-H2023 = tested on: NCI-H2023
How it was run: as §1

SMILES: Cc1csc(=NC2CCCCC2)n1/N=C/c1ccc(O)c(O)c1O [MIM1] + CC(=O)c1c(C)c2cnc(Nc3ccc(N4CCNCC4)cn3)nc2n(C2CCCC2)c1=O [Palbociclib] (partner 0.5 µM)
- relative viability (CAL-12T; first compound 0.2 µM): 0.526
- relative viability (CAL-12T; first compound 0.6325 µM): 0.386
- relative viability (CAL-12T; first compound 2 µM): 0.481
- relative viability (CAL-12T; first compound 6.325 µM): 0.268
- relative viability (CAL-12T; first compound 20 µM): 0.118
- relative viability (NCI-H322M; first compound 0.2 µM): 0.466
- relative viability (NCI-H322M; first compound 0.6325 µM): 0.466
- relative viability (NCI-H322M; first compound 2 µM): 0.488
- relative viability (NCI-H322M; first compound 6.325 µM): 0.459
- relative viability (NCI-H322M; first compound 20 µM): 0.384
- relative viability (SW 900; first compound 0.2 µM): 0.632
- relative viability (SW 900; first compound 0.6325 µM): 0.581
- relative viability (SW 900; first compound 2 µM): 0.507
- relative viability (SW 900; first compound 6.325 µM): 0.211
- relative viability (SW 900; first compound 20 µM): 0.171
- relative viability (NCI-H727; first compound 0.2 µM): 0.634
- relative viability (NCI-H727; first compound 0.6325 µM): 0.686
- relative viability (NCI-H727; first compound 2 µM): 0.605
- relative viability (NCI-H727; first compound 6.325 µM): 0.546
- relative viability (NCI-H727; first compound 20 µM): 0.472
- relative viability (HCC-15; first compound 0.2 µM): 0.763
- relative viability (HCC-15; first compound 0.6325 µM): 0.709
- relative viability (HCC-15; first compound 2 µM): 0.763
- relative viability (HCC-15; first compound 6.325 µM): 0.433
- relative viability (HCC-15; first compound 20 µM): 0.121
- relative viability (NCI-H358; first compound 0.2 µM): 0.145
- relative viability (NCI-H358; first compound 0.6325 µM): 0.153
- relative viability (NCI-H358; first compound 2 µM): 0.122
- relative viability (NCI-H358; first compound 6.325 µM): 0.118
- relative viability (NCI-H358; first compound 20 µM): 0.128
- relative viability (LK-2; first compound 0.2 µM): 0.774
- relative viability (LK-2; first compound 0.6325 µM): 0.495
- relative viability (LK-2; first compound 2 µM): 0.468
- relative viability (LK-2; first compound 6.325 µM): 0.725
- relative viability (LK-2; first compound 20 µM): 0.223
- relative viability (EKVX; first compound 0.2 µM): 0.332
- relative viability (EKVX; first compound 0.6325 µM): 0.367
- relative viability (EKVX; first compound 2 µM): 0.339
- relative viability (EKVX; first compound 6.325 µM): 0.312
- relative viability (EKVX; first compound 20 µM): 0.286
- relative viability (ABC-1; first compound 0.2 µM): 0.603
- relative viability (ABC-1; first compound 0.6325 µM): 0.988
- relative viability (ABC-1; first compound 2 µM): 0.544
- relative viability (ABC-1; first compound 6.325 µM): 0.406
- relative viability (ABC-1; first compound 20 µM): 0.473
- relative viability (NCI-H522; first compound 0.2 µM): 0.819
- relative viability (NCI-H522; first compound 0.6325 µM): 0.921
- relative viability (NCI-H522; first compound 2 µM): 0.932
- relative viability (NCI-H522; first compound 6.325 µM): 1.13
- relative viability (NCI-H522; first compound 20 µM): 0.61
- relative viability (NCI-H520; first compound 0.2 µM): 0.195
- relative viability (NCI-H520; first compound 0.6325 µM): 0.239
- relative viability (NCI-H520; first compound 2 µM): 0.201
- relative viability (NCI-H520; first compound 6.325 µM): 0.22
- relative viability (NCI-H520; first compound 20 µM): 0.183
- relative viability (NCI-H1651; first compound 0.2 µM): 0.542
- relative viability (NCI-H1651; first compound 0.6325 µM): 0.531
- relative viability (NCI-H1651; first compound 2 µM): 0.521
- relative viability (NCI-H1651; first compound 6.325 µM): 0.416
- relative viability (NCI-H1651; first compound 20 µM): 0.541
- relative viability (COR-L 105; first compound 0.2 µM): 0.472
- relative viability (COR-L 105; first compound 0.6325 µM): 0.435
- relative viability (COR-L 105; first compound 2 µM): 0.396
- relative viability (COR-L 105; first compound 6.325 µM): 0.396
- relative viability (COR-L 105; first compound 20 µM): 0.323
- relative viability (BEN; first compound 0.2 µM): 0.507
- relative viability (BEN; first compound 0.6325 µM): 0.466
- relative viability (BEN; first compound 2 µM): 0.438
- relative viability (BEN; first compound 6.325 µM): 0.468
- relative viability (BEN; first compound 20 µM): 0.407
- relative viability (NCI-H460; first compound 0.2 µM): 0.219
- relative viability (NCI-H460; first compound 0.6325 µM): 0.169
- relative viability (NCI-H460; first compound 2 µM): 0.106
- relative viability (NCI-H460; first compound 6.325 µM): 0.0475
- relative viability (NCI-H460; first compound 20 µM): 0.027
- relative viability (201T; first compound 0.2 µM): 0.358
- relative viability (201T; first compound 0.6325 µM): 0.344
- relative viability (201T; first compound 2 µM): 0.36
- relative viability (201T; first compound 6.325 µM): 0.327
- relative viability (201T; first compound 20 µM): 0.339
- relative viability (LU99A; first compound 0.2 µM): 0.404
- relative viability (LU99A; first compound 0.6325 µM): 0.405
- relative viability (LU99A; first compound 2 µM): 0.38
- relative viability (LU99A; first compound 6.325 µM): 0.355
- relative viability (LU99A; first compound 20 µM): 0.159
- relative viability (HCC-44; first compound 0.2 µM): 0.902
- relative viability (HCC-44; first compound 0.6325 µM): 0.981
- relative viability (HCC-44; first compound 2 µM): 0.94
- relative viability (HCC-44; first compound 6.325 µM): 0.608
- relative viability (HCC-44; first compound 20 µM): 0.578
- relative viability (PC-3 [JPC-3]; first compound 0.2 µM): 0.544
- relative viability (PC-3 [JPC-3]; first compound 0.6325 µM): 0.538
- relative viability (PC-3 [JPC-3]; first compound 2 µM): 0.493
- relative viability (PC-3 [JPC-3]; first compound 6.325 µM): 0.446
- relative viability (PC-3 [JPC-3]; first compound 20 µM): 0.343
- relative viability (NCI-H838; first compound 0.2 µM): 0.202
- relative viability (NCI-H838; first compound 0.6325 µM): 0.26
- relative viability (NCI-H838; first compound 2 µM): 0.216
- relative viability (NCI-H838; first compound 6.325 µM): 0.169
- relative viability (NCI-H838; first compound 20 µM): 0.168
- relative viability (EMC-BAC-2; first compound 0.2 µM): 0.543
- relative viability (EMC-BAC-2; first compound 0.6325 µM): 0.542
- relative viability (EMC-BAC-2; first compound 2 µM): 0.476
- relative viability (EMC-BAC-2; first compound 6.325 µM): 0.492
- relative viability (EMC-BAC-2; first compound 20 µM): 0.244
- relative viability (NCI-H2023; first compound 0.2 µM): 0.393
- relative viability (NCI-H2023; first compound 0.6325 µM): 0.387
- relative viability (NCI-H2023; first compound 2 µM): 0.391
- relative viability (NCI-H2023; first compound 6.325 µM): 0.194
- relative viability (NCI-H2023; first compound 20 µM): 0.0614
